From ChEMBL document CHEMBL1201862, “PubChem BioAssay data set” (2004)
Values joined by “and” are separate entries in the source; they are usually repeats but may differ in a detail not shown here. Identical values can stand only once.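 Each compound was tested at five concentrations against cells in 96-well plates for 48 hours. The concentration for 50% growth inhibition is given as GI50.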 Active and inactive are the calls of the source. No stated cut-off is given here; in the data, active = GI50 up to about 1.1 µM and inactive = higher.

Legend:
Assay in all cases: NCI tumour cell line growth inhibition, 48 h
MCF7 = tested on: MCF7
UO-31 = tested on: UO-31
SK-MEL-5 = tested on: SK-MEL-5
M14 = tested on: M14
NCI-H23 = tested on: NCI-H23
NCI-H460 = tested on: NCI-H460
TK-10 = tested on: TK-10
HCC 2998 = tested on: HCC 2998
BT-549 = tested on: BT-549
EKVX = tested on: EKVX
K562 = tested on: K562
Hs-578T = tested on: Hs-578T
U-251 = tested on: U-251
PC-3 = tested on: PC-3
DU-145 = tested on: DU-145
NCI-H226 = tested on: NCI-H226
SK-MEL-28 = tested on: SK-MEL-28
LOX IMVI = tested on: LOX IMVI
CAKI-1 = tested on: CAKI-1
UACC-257 = tested on: UACC-257
NCI/ADR-RES = tested on: NCI/ADR-RES
HCT-15 = tested on: HCT-15
MOLT-4 = tested on: MOLT-4
UACC-62 = tested on: UACC-62
SK-OV-3 = tested on: SK-OV-3
RPMI-8226 = tested on: RPMI-8226
SK-MEL-2 = tested on: SK-MEL-2
MDA-MB-231 = tested on: MDA-MB-231
SR = tested on: SR
CCRF-CEM = tested on: CCRF-CEM
T47D = tested on: T47D
OVCAR-4 = tested on: OVCAR-4
HCT-116 = tested on: HCT-116
A498 = tested on: A498
786-0 = tested on: 786-0
COLO 205 = tested on: COLO 205
SNB-19 = tested on: SNB-19
SNB-75 = tested on: SNB-75
SF-268 = tested on: SF-268
HL-60 = tested on: HL-60
OVCAR-8 = tested on: OVCAR-8
RXF 393 = tested on: RXF 393
SF-539 = tested on: SF-539
SF-295 = tested on: SF-295
HT-29 = tested on: HT-29
KM12 = tested on: KM12
ACHN = tested on: ACHN
SW-620 = tested on: SW-620
HOP-62 = tested on: HOP-62
MDA-MB-435 = tested on: MDA-MB-435
IGROV-1 = tested on: IGROV-1
HOP-92 = tested on: HOP-92
MDA-N = tested on: MDA-N
OVCAR-3 = tested on: OVCAR-3
Malme-3M = tested on: Malme-3M
SN12C = tested on: SN12C
OVCAR-5 = tested on: OVCAR-5
A549 = tested on: A549
NCI-H522 = tested on: NCI-H522

With `NC(=O)c1c2c(n3ccccc13)C(=O)c1ccccc1C2=O` the GI50 (MCF7) was > 100 µM (inactive), the GI50 (UO-31) was > 100 µM (inactive) and the GI50 (SK-MEL-5) was 16.1 µM (inactive). For the same compound, the GI50 (M14) was 18.1 µM (inactive), the GI50 (NCI-H23) was 11.9 µM (inactive) and the GI50 (NCI-H460) was 19.4 µM (inactive). For the same compound, the GI50 (TK-10) was > 100 µM (inactive), the GI50 (HCC 2998) was > 100 µM (inactive) and the GI50 (BT-549) was > 100 µM (inactive). For the same compound, the GI50 (EKVX) was > 100 µM (inactive), the GI50 (K562) was > 100 µM (inactive) and the GI50 (Hs-578T) was 96.6 µM (inactive). The GI50 (U-251) was 39.6 µM (inactive), the GI50 (PC-3) was > 100 µM (inactive) and the GI50 (DU-145) was > 100 µM (inactive). The GI50 (NCI-H226) was 52.4 µM (inactive), the GI50 (SK-MEL-28) was > 100 µM (inactive) and the GI50 (LOX IMVI) was > 100 µM (inactive). The GI50 (CAKI-1) was > 100 µM (inactive), the GI50 (UACC-257) was 32.1 µM (inactive) and the GI50 (NCI/ADR-RES) was > 100 µM (inactive). For the same compound, the GI50 (HCT-15) was greater than 100 µM, the GI50 (MOLT-4) was > 100 µM (inactive) and the GI50 (UACC-62) was 68.2 µM (inactive). For the same compound, the GI50 (SK-OV-3) was > 100 µM (inactive), the GI50 (RPMI-8226) was > 100 µM (inactive) and the GI50 (SK-MEL-2) was 32.3 µM (inactive). For the same compound, the GI50 (MDA-MB-231) was 38.5 µM (inactive), the GI50 (SR) was > 100 µM (inactive) and the GI50 (CCRF-CEM) was > 100 µM (inactive). The GI50 (T47D) was > 100 µM (inactive), the GI50 (OVCAR-4) was > 100 µM (inactive) and the GI50 (HCT-116) was > 100 µM (inactive). For the same compound, the GI50 (A498) was > 100 µM (inactive), the GI50 (786-0) was 71.8 µM (inactive) and the GI50 (COLO 205) was 39.6 µM (inactive). The GI50 (SNB-19) was 74 µM (inactive), the GI50 (SNB-75) was 37.6 µM (inactive) and the GI50 (SF-268) was > 100 µM (inactive). The GI50 (HL-60) was > 100 µM (inactive), the GI50 (OVCAR-8) was > 100 µM (inactive) and the GI50 (RXF 393) was 37 µM (inactive). For the same compound, the GI50 (SF-539) was 39.6 µM (inactive), the GI50 (SF-295) was 29 µM (inactive) and the GI50 (HT-29) was 32.2 µM (inactive). The GI50 (KM12) was > 100 µM (inactive), the GI50 (ACHN) was > 100 µM (inactive) and the GI50 (SW-620) was > 100 µM (inactive). For the same compound, the GI50 (HOP-62) was 30.2 µM (inactive), the GI50 (MDA-MB-435) was 20.2 µM (inactive) and the GI50 (IGROV-1) was 42.7 µM (inactive). For the same compound, the GI50 (HOP-92) was 31 µM (inactive).

For `COC(=O)CCC(C)[C@H]1CCC2C3C(C[C@H](OC(C)=O)[C@@]21C)[C@@]1(C)CCC2(C[C@H]1C[C@H]3OC(C)=O)OOC1(CCC(C)CC1)OO2` (stereo partly specified), the GI50 (SK-MEL-5) was 15.7 µM (inactive) and 9.79 µM (inactive), the GI50 (M14) was 32.4 µM (inactive) and 18.2 µM (inactive) and the GI50 (MDA-N) was 27.4 µM (inactive) and 15.7 µM (inactive). The GI50 (HCC 2998) was 51.3 µM (inactive), the GI50 (U-251) was 9.16 µM (inactive) and 5.16 µM (inactive) and the GI50 (NCI-H226) was 56.6 µM (inactive) and 31.8 µM (inactive). The GI50 (SK-MEL-28) was > 100 µM (inactive), the GI50 (LOX IMVI) was 7.8 µM (inactive) and 5.15 µM (inactive) and the GI50 (NCI/ADR-RES) was > 100 µM (inactive) and 67.9 µM (inactive). For the same compound, the GI50 (UACC-62) was < 0.01 µM (active), the GI50 (SK-OV-3) was > 100 µM (inactive) and the GI50 (OVCAR-3) was 7.1 µM (inactive) and 6.27 µM (inactive). For the same compound, the GI50 (MDA-MB-231) was 14 µM (inactive) and 20.2 µM (inactive), the GI50 (SR) was 4.55 µM (inactive) and 2.46 µM (inactive) and the GI50 (CCRF-CEM) was 6.38 µM (inactive) and 4.59 µM (inactive). The GI50 (T47D) was 10.5 µM (inactive), the GI50 (HCT-116) was 5.41 µM (inactive) and 2.77 µM (inactive) and the GI50 (A498) was > 100 µM (inactive). For the same compound, the GI50 (Malme-3M) was 9.51 µM (inactive) and 17.9 µM (inactive), the GI50 (SNB-19) was 75 µM (inactive) and the GI50 (RXF 393) was 72.3 µM (inactive). For the same compound, the GI50 (SF-539) was > 100 µM (inactive) and 58.6 µM (inactive), the GI50 (HT-29) was 50.5 µM (inactive) and 55.7 µM (inactive) and the GI50 (ACHN) was 10.1 µM (inactive) and 6.9 µM (inactive). The GI50 (SN12C) was 34 µM (inactive) and 33.4 µM (inactive) and the GI50 (OVCAR-5) was > 100 µM (inactive).

In the case of `Cc1n[nH]c(=O)n1/N=C/c1ccc([N+](=O)[O-])o1`, the GI50 (MCF7) is reported as 18 µM (inactive), the GI50 (UO-31) is reported as 14.5 µM (inactive) and the GI50 (SK-MEL-5) is reported as 3.56 µM (inactive). For the same compound, the GI50 (M14) was 11.6 µM (inactive), the GI50 (NCI-H23) was 13.8 µM (inactive) and the GI50 (A549) was 16.7 µM (inactive). The GI50 (NCI-H460) was 14.3 µM (inactive), the GI50 (TK-10) was 18.1 µM (inactive) and the GI50 (HCC 2998) was 20.6 µM (inactive). The GI50 (BT-549) was 21.8 µM (inactive), the GI50 (EKVX) was 17.5 µM (inactive) and the GI50 (K562) was 8.02 µM (inactive). The GI50 (U-251) was 21.7 µM (inactive), the GI50 (PC-3) was 29 µM (inactive) and the GI50 (DU-145) was 10.4 µM (inactive). The GI50 (NCI-H226) was 15.6 µM (inactive), the GI50 (SK-MEL-28) was 11.2 µM (inactive) and the GI50 (LOX IMVI) was 8.85 µM (inactive). The GI50 (CAKI-1) was 7.8 µM (inactive), the GI50 (UACC-257) was 13 µM (inactive) and the GI50 (NCI/ADR-RES) was 17.4 µM (inactive). For the same compound, the GI50 (HCT-15) was 7.01 µM, the GI50 (MOLT-4) was 5.7 µM (inactive) and the GI50 (UACC-62) was 13.1 µM (inactive). For the same compound, the GI50 (SK-OV-3) was 28.2 µM (inactive), the GI50 (RPMI-8226) was 15.7 µM (inactive) and the GI50 (SK-MEL-2) was 14.2 µM (inactive). For the same compound, the GI50 (OVCAR-3) was 5.58 µM (inactive), the GI50 (MDA-MB-231) was 18.2 µM (inactive) and the GI50 (CCRF-CEM) was 13.5 µM (inactive). The GI50 (T47D) was 19.5 µM (inactive), the GI50 (OVCAR-4) was 16.7 µM (inactive) and the GI50 (HCT-116) was 8.39 µM (inactive). For the same compound, the GI50 (A498) was 22.1 µM (inactive), the GI50 (Malme-3M) was 4.65 µM (inactive) and the GI50 (786-0) was 15.1 µM (inactive). For the same compound, the GI50 (COLO 205) was 8.59 µM (inactive), the GI50 (SNB-19) was 31 µM (inactive) and the GI50 (SNB-75) was 32.4 µM (inactive). The GI50 (NCI-H522) was 3.13 µM (inactive), the GI50 (SF-268) was 17.4 µM (inactive) and the GI50 (OVCAR-8) was 15.2 µM (inactive). The GI50 (RXF 393) was 0.881 µM (active), the GI50 (SF-539) was 19.1 µM (inactive) and the GI50 (SF-295) was 25.8 µM (inactive). The GI50 (HT-29) was 12.9 µM (inactive), the GI50 (KM12) was 13.7 µM (inactive) and the GI50 (ACHN) was 10.9 µM (inactive). For the same compound, the GI50 (SN12C) was 5.64 µM (inactive), the GI50 (SW-620) was 13.9 µM (inactive) and the GI50 (HOP-62) was 26.9 µM (inactive). For the same compound, the GI50 (MDA-MB-435) was 5.3 µM (inactive) and the GI50 (OVCAR-5) was 21.4 µM (inactive).
